The IC50 is the point on the concentration scale where inhibition reaches its midpoint. A low value points to greater potency in that assay.

The first test concerns the target T1, CD22 (Homo sapiens, UniProt P20273).
T1 construct: The soluble CD22 protein was expressed in the CHO-Lec1 cell line; made in house; host or cells: CHO-Lec1
T1 sequence (P20273 20-687 limits assumed): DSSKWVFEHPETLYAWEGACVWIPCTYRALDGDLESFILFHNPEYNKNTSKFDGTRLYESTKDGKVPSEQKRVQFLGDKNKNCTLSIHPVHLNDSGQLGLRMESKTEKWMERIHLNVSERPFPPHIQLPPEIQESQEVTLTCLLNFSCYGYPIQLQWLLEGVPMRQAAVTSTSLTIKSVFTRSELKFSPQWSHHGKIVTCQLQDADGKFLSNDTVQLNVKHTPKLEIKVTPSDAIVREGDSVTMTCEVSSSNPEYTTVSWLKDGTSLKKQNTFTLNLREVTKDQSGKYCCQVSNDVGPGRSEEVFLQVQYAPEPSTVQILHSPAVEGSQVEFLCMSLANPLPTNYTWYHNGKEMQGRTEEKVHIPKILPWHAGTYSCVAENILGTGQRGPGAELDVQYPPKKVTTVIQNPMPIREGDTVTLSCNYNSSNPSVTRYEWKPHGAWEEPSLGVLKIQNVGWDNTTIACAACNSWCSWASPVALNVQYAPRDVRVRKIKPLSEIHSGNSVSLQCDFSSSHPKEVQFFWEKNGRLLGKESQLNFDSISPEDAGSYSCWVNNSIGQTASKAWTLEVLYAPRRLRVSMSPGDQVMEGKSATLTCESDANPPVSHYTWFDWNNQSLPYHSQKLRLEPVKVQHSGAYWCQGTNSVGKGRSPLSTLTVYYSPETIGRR
The experiment in a line: ELISA-based inhibition assay: inhibition of binding of soluble CD22 to immobilized IgM. The following applies: Table I; relative to reference BPCNeu5Ac (rIP = 1). Here is the method: The biological activity of the substances was determined in an ELISA-based inhibition assay as described in “Eur. J. Immunol. 2012, 42, 2792-2802”. The sialic acid derivatives of the formula (I) inhibit the binding of soluble CD22 to immobilized IgM in proportion to their affinity for CD22. The soluble CD22 protein was expressed in the CHO-Lec1 cell line and isolated as described by “Eur. J. Immunol. 2012, 42, 2792-2802”. […] The increase in affinity is reported as rIP (relative inhibitory affinity).
(ELISA stands for enzyme-linked immunosorbent assay.)
Consider `CCC(=O)N[C@H]1C[C@](OCCCCCC(=O)[O-])(C(=O)[O-])O[C@@H]([C@H](O)[C@H](O)CNC(=O)c2ccc(-c3ccccc3)cc2)[C@@H]1NC(C)=O.[Na+].[Na+]` [Compound 17], for which the “rIP (relative inhibitory potency)” value is 502.
Same read-out and setting: the result for `CC(=O)N[C@H]1[C@H]([C@H](O)[C@H](O)CNC(=O)c2ccc(-c3ccc(F)cc3)cc2)O[C@@](OCCCCCC(=O)[O-])(C(=O)[O-])C[C@@H]1NS(=O)(=O)[O-].[Na+].[Na+].[Na+]` [Compound 37] reads 405.

Staying with this test, now noted: Table I; soluble CD22 binding to immobilized IgM.
For the compound `CC(=O)N[C@@H]1[C@@H](NS(C)(=O)=O)[C@H](O)[C@](OCCCCCC(=O)O)(C(=O)O)O[C@H]1[C@H](O)[C@H](O)CNC(=O)c1ccc(-c2ccccc2)cc1` [Compound 11], the IC50 came to 7.7 nM.
`CCC(=O)N[C@H]1C[C@](OCCCCCC(=O)[O-])(C(=O)[O-])O[C@@H]([C@H](O)[C@H](O)CNC(=O)c2ccc(-c3ccccc3)cc2)[C@@H]1NC(C)=O.[Na+].[Na+]` [Compound 17] came in with an IC50 of 12 nM. This IC50 lies about 1.6-fold higher than the previous one.
On to `CCC(=O)N[C@@H]1[C@@H](NC(C)=O)[C@H]([C@H](O)[C@H](O)CNC(=O)c2ccc(-c3ccccc3)cc2)O[C@@](OCCCCCC(=O)O)(C(=O)O)[C@H]1O` [Compound 10], for which the IC50 was 6 nM.
For `CC(=O)N[C@H]1[C@H]([C@H](O)[C@H](O)CNC(=O)c2ccc(-c3ccccc3)cc2)O[C@@](OCCCSCCC(=O)O)(C(=O)O)C[C@@H]1NC(=O)OC(C)(C)C` [Compound 29], the IC50 was found to be 85 nM. Compared with the last compound, the IC50 is about 14-fold higher.
`CC(=O)N[C@H]1[C@H]([C@H](O)[C@H](O)CNC(=O)c2ccc(-c3ccc(F)cc3)cc2)O[C@@](OCCCCCC(=O)[O-])(C(=O)[O-])C[C@@H]1NS(=O)(=O)[O-].[Na+].[Na+].[Na+]` [Compound 37] showed an IC50 of 15 nM. Against the preceding compound, the IC50 is about 5.7-fold lower.

Still in this test, the particulars now being: Table II; relative to reference compound 10 co-tested in the same assay (rIP = 1).
In the case of `CC(=O)N[C@@H]1[C@@H](NC(=O)CCCl)[C@H](O)[C@](OCCCCCC(=O)[O-])(C(=O)[O-])O[C@H]1[C@H](O)[C@H](O)CNC(=O)c1ccc(-c2ccccc2)cc1.[Na+].[Na+]` [Compound 46], the rIP is given as 0.84.
With `CC(=O)N[C@@H]1[C@@H](NC(=O)C(C)C)[C@H](O)[C@](OCCCCCC(=O)[O-])(C(=O)[O-])O[C@H]1[C@H](O)[C@H](O)CNC(=O)c1ccc(-c2ccccc2)cc1.[Na+].[Na+]` [Compound 39], the rIP turned out to be 0.70.
As for `CC(=O)N[C@@H]1[C@@H](NC(=O)c2ccccc2Cl)[C@H](O)[C@](OCCCCCC(=O)[O-])(C(=O)[O-])O[C@H]1[C@H](O)[C@H](O)CNC(=O)c1ccc(-c2ccccc2)cc1.[Na+].[Na+]` [Compound 52], the rIP is recorded as 0.12.
Still for that read-out and setting: with `CC(=O)N[C@@H]1[C@@H](NC(=O)c2cccc(C)c2)[C@H](O)[C@](OCCCCCC(=O)[O-])(C(=O)[O-])O[C@H]1[C@H](O)[C@H](O)CNC(=O)c1ccc(-c2ccccc2)cc1.[Na+].[Na+]` [Compound 50] the figure was 0.51; with `COc1cccc(C(=O)N[C@@H]2[C@@H](NC(C)=O)[C@H]([C@H](O)[C@H](O)CNC(=O)c3ccc(-c4ccccc4)cc3)O[C@@](OCCCCCC(=O)[O-])(C(=O)[O-])[C@H]2O)c1.[Na+].[Na+]` [Compound 49], 0.34; with `CC(=O)N[C@@H]1[C@@H](NC(=O)CN(C)C)[C@H](O)[C@](OCCCCCC(=O)[O-])(C(=O)[O-])O[C@H]1[C@H](O)[C@H](O)CNC(=O)c1ccc(-c2ccccc2)cc1.[Na+].[Na+]` [Compound 47], 0.18.
On to `CC(=O)N[C@@H]1[C@@H](NC(=O)C2CC2)[C@H](O)[C@](OCCCCCC(=O)[O-])(C(=O)[O-])O[C@H]1[C@H](O)[C@H](O)CNC(=O)c1ccc(-c2ccccc2)cc1.[Na+].[Na+]` [Compound 45], for which the rIP was determined as 0.81.
On the same count and under the same terms, with `CC(=O)N[C@@H]1[C@@H](NS(=O)(=O)c2cccc3c(N(C)C)cccc23)[C@H](O)[C@](OCCCCCC(=O)[O-])(C(=O)[O-])O[C@H]1[C@H](O)[C@H](O)CNC(=O)c1ccc(-c2ccccc2)cc1.[Na+].[Na+]` [Compound 65] the figure was 0.17; with `CC(=O)N[C@@H]1[C@@H](NC(C)=O)[C@H](O)[C@](OCCCCCC(=O)[O-])(C(=O)[O-])O[C@H]1[C@H](O)[C@H](O)CNC(=O)c1ccc(-c2ccccc2)cc1.[Na+].[Na+]` [Compound 38], 0.45.
`CC(=O)N[C@@H]1[C@@H](NC(=O)CCl)[C@H](O)[C@](OCCCCCC(=O)[O-])(C(=O)[O-])O[C@H]1[C@H](O)[C@H](O)CNC(=O)c1ccc(-c2ccccc2)cc1.[Na+].[Na+]` [Compound 41]: the rIP is reported as 0.37.
Same read-out and setting: with `CC(=O)N[C@@H]1[C@@H](NC(=O)CF)[C@H](O)[C@](OCCCCCC(=O)[O-])(C(=O)[O-])O[C@H]1[C@H](O)[C@H](O)CNC(=O)c1ccc(-c2ccccc2)cc1.[Na+].[Na+]` [Compound 43] the figure was 0.25.

Still in this test, the particulars now being: Table III; relative to reference compound 17 co-tested in the same assay (rIP = 1).
Compound `CC(=O)N[C@H]1[C@H]([C@H](O)[C@H](O)CNC(=O)c2ccc(-c3ccccc3)cc2)O[C@@](OCCCCCC(=O)[O-])(C(=O)[O-])C[C@@H]1NC(=O)c1ccc(F)cc1.[Na+].[Na+]` [Compound 60] came in with a rIP of 2.1.
The compound `CCC(=O)N[C@H]1C[C@](OCCCCCC(=O)[O-])(C(=O)[O-])O[C@@H]([C@H](O)[C@H](O)CNC(=O)c2ccc(-c3ccccc3)cc2)[C@@H]1NC(C)=O.[Na+].[Na+]` [Compound 17] displayed a rIP of 1.
On the same count and under the same terms, with `CC(=O)N[C@H]1[C@H]([C@H](O)[C@H](O)CNC(=O)c2ccc(-c3ccccc3)cc2)O[C@@](OCCCCCC(=O)[O-])(C(=O)[O-])C[C@@H]1NC(=O)c1ccccc1.[Na+].[Na+]` [Compound 53] the figure was 1.1.
In the case of `CC(=O)N[C@H]1[C@H]([C@H](O)[C@H](O)CNC(=O)c2ccc(-c3ccccc3)cc2)O[C@@](OCCCCCC(=O)[O-])(C(=O)[O-])C[C@@H]1NC(=O)c1c(F)cccc1F.[Na+].[Na+]` [Compound 54], the rIP is reported as 0.75.
On to `CC(=O)N[C@H]1[C@H]([C@H](O)[C@H](O)CNC(=O)c2ccc(-c3ccccc3)cc2)O[C@@](OCCCCCC(=O)[O-])(C(=O)[O-])C[C@@H]1NC(=O)c1cccs1.[Na+].[Na+]` [Compound 56], for which the rIP worked out at 3.6.
As for `CC(=O)N[C@H]1[C@H]([C@H](O)[C@H](O)CNC(=O)c2ccc(-c3ccccc3)cc2)O[C@@](OCCCCCC(=O)[O-])(C(=O)[O-])C[C@@H]1NC(=O)OCc1ccccc1.[Na+].[Na+]` [Compound 66], the rIP was 1.3.
Same read-out and setting: the result for `CC(=O)N[C@H]1[C@H]([C@H](O)[C@H](O)CNC(=O)c2ccc(-c3ccccc3)cc2)O[C@@](OCCCCCC(=O)[O-])(C(=O)[O-])C[C@@H]1NC(=O)c1ccc(C(F)(F)F)cc1.[Na+].[Na+]` [Compound 64] reads 1.2; that for `CC(=O)N[C@H]1[C@H]([C@H](O)[C@H](O)CNC(=O)c2ccc(-c3ccccc3)cc2)O[C@@](OCCCCCC(=O)[O-])(C(=O)[O-])C[C@@H]1NC(=O)c1ccc(O)cc1.[Na+].[Na+]` [Compound 62], 1.7.

The same test, now with this note: Table IV; relative to reference compound 66 co-tested in the same assay (rIP = 1).
Take `CC(=O)N[C@H]1[C@H]([C@H](O)[C@H](O)CNC(=O)c2ccc(-c3cccs3)cc2)O[C@@](OCCCCCC(=O)[O-])(C(=O)[O-])C[C@@H]1NC(=O)OCc1ccccc1.[Na+].[Na+]` [Compound 70]: the rIP is recorded as 0.88.
In turn, `CC(=O)N[C@H]1[C@H]([C@H](O)[C@H](O)CNC(=O)c2ccc(-c3ccc(O)cc3)cc2)O[C@@](OCCCCCC(=O)[O-])(C(=O)[O-])C[C@@H]1NC(=O)OCc1ccccc1.[Na+].[Na+]` [Compound 67] registered a rIP of 1.0.
The compound `CC(=O)N[C@H]1[C@H]([C@H](O)[C@H](O)CNC(=O)c2ccc(-c3ccccc3F)cc2)O[C@@](OCCCCCC(=O)[O-])(C(=O)[O-])C[C@@H]1NC(=O)OCc1ccccc1.[Na+].[Na+]` [Compound 68] registered a rIP of 0.76.
`CC(=O)N[C@H]1[C@H]([C@H](O)[C@H](O)CNC(=O)c2cccc3ccccc23)O[C@@](OCCCCCC(=O)[O-])(C(=O)[O-])C[C@@H]1NC(=O)OCc1ccccc1.[Na+].[Na+]` [Compound 76] returned a rIP of 0.35.
On to `CC(=O)N[C@H]1[C@H]([C@H](O)[C@H](O)CNC(=O)c2ccc(Oc3ccccc3)cc2)O[C@@](OCCCCCC(=O)[O-])(C(=O)[O-])C[C@@H]1NC(=O)OCc1ccccc1.[Na+].[Na+]` [Compound 75], for which the rIP came out at 0.25.
In the case of `CC(=O)N[C@H]1[C@H]([C@H](O)[C@H](O)CNC(=O)Cc2ccc3ccccc3c2)O[C@@](OCCCCCC(=O)[O-])(C(=O)[O-])C[C@@H]1NC(=O)OCc1ccccc1.[Na+].[Na+]` [Compound 72], the rIP is given as 0.91.
The compound `CC(=O)N[C@H]1[C@H]([C@H](O)[C@H](O)CNC(=O)c2ccc(-c3ccccc3)cc2)O[C@@](OCCCCCC(=O)[O-])(C(=O)[O-])C[C@@H]1NC(=O)OCc1ccccc1.[Na+].[Na+]` [Compound 66] had a rIP of 1.
In turn, `CC(=O)N[C@H]1[C@H]([C@H](O)[C@H](O)CNC(=O)c2ccc(-c3ccccc3)nc2)O[C@@](OCCCCCC(=O)[O-])(C(=O)[O-])C[C@@H]1NC(=O)OCc1ccccc1.[Na+].[Na+]` [Compound 74] yielded a rIP of 0.20.
Compound `CC(=O)N[C@H]1[C@H]([C@H](O)[C@H](O)CNC(=O)c2cnc(-c3ccccc3)nc2)O[C@@](OCCCCCC(=O)[O-])(C(=O)[O-])C[C@@H]1NC(=O)OCc1ccccc1.[Na+].[Na+]` [Compound 73] came in with a rIP of 0.23.
`CC(=O)N[C@H]1[C@H]([C@H](O)[C@H](O)CNC(=O)c2ccc(-c3cccs3)s2)O[C@@](OCCCCCC(=O)[O-])(C(=O)[O-])C[C@@H]1NC(=O)OCc1ccccc1.[Na+].[Na+]` [Compound 71] gave a rIP of 0.28.
